Measured values as given in patent US4771068A, “Mitomycin derivatives having anti-tumor and antibacterial utility” (priority 1985, dated 1988).
In brackets after ≈: the same amount, converted by molar mass.

Columns and labels:
[1] = system: Streptococcus faecalis ATCC 10541; assay: Antibacterial activity (minimum growth inhibitory concentration), agar dilution method; format: cell-based; details: Enterococcus faecalis, ATCC10541; Streptococcus faecalis ATCC 10541, pH 7.0, agar dilution method; read-out: minimum growth inhibitory concentration, SF
Method: (§1) Antibacterial activities of Compounds (I) against various bacteria are shown by the minimum growth inhibitory concentration (μg/ml) in Table 3. The minimum growth inhibitory concentration was measured at pH 7.0 according to the agar dilution method. In the table, bacteria are indicated by the following letters.
SF: Streptococcus faecalis ATCC 10541

Bacillus subtilis 10707 = assay: as above; format: cell-based; details: Bacillus subtilis 10707, pH 7.0, agar dilution method; read-out: minimum growth inhibitory concentration, BS
Method: as §1
BS: Bacillus subtilis 10707

[2] = system: Klebsiella pneumoniae ATCC 10031; assay: as above; format: cell-based; details: ATCC10031; Klebsiella pneumoniae ATCC 10031, pH 7.0, agar dilution method; read-out: minimum growth inhibitory concentration, KP
Method: as §1
KP: Klebsiella pneumoniae ATCC 10031

[3] = system: Staphylococcus aureus ATCC 6538P; assay: as above; format: cell-based; details: ATCC6538P, pH 7.0, agar dilution method, read-out: minimum growth inhibitory concentration, SA
Method: as §1
SA: Staphylococcus aureus ATCC 6538P

Acute toxicity = details: mouse, in vivo, ip; ddY mice, intraperitoneally once, 14 days observation
Method: Each animal of the test group consisting of 5 ddY mice was administered intraperitoneally once with a test compound. […] The LD50 was determined by Beherns Kaerber's method.

peripheral leucocytes = assay: Effect on the peripheral leucocytes number; format: in vivo, mouse (ddY strain); details: minimum dose reducing peripheral leucocytes number to 4000/mm^3; tumour-carrying ddY mice, intraperitoneal, 4 days after administration
Method: WBC4000 : Minimum dose of a test compound which reduces the
peripheral leucocytes number to 4000/mm^3.
Sarcoma 180 solid tumour cells (5×10^6) were subcutaneously implanted into the right axilla of each mouse (body weight 20±2 g) of a group consisting of 5 male mice (ddY strain). 24 hours after implantation,a test compound was intraperitoneally administered to each animal. 4 days after the administration, blood (each 0.02 ml) was collected from the suborbital plexus vein of each tumour-carrying animal. The collected sample of blood was dispersed in 9.98 ml of Cell-Kit Seven solution. One drop of saponin solution was added to the sample to dissolve erythrocytes and then a microcell counter was used to count the number of leucocytes. […] The relationship between the number of peripheral leucocytes and the dose of the test compound was plotted and the dose (i.e., WBC4000) corresponding to 4000 peripheral leucocytes/mm^3 (about half the number of leucocytes of normal mice) was obtained.

Sarcoma 180 solid tumour = assay: animal or person; details: for CIc: CI of test compound divided by CI of mitomycin C as control in the same condition; for ED50: Mus musculus, Sarcoma-180, iv, 168 h; for CI (LD50/ED50): chemotherapeutic index
From the text: CIc : Value given by division of CI of each test compound by CI of
determination of antitumour activity of the test compound. A CIc
5×10^6 cells of Sarcoma 180 solid tumour were intraperitoneally implanted into ddY mice. 7 days later, ascites cells were sampled. The cells were washed once with a sterilized physiological sodium chloride solution and were used to prepare a cell suspension containing 5×10^7 cells per ml with a sterilized physiological sodium chloride solution. On each occasion, 0.1 ml of the cell suspension was subcutaneously implanted into the right axilla of a male mouse (ddY strain; body weight 20±2 g).
The anti-tumour activity was determined in the following manner. 7 days after the implantation, the major axis (a) and the minor axis (b) of the tumour were measured to calculate a value of "a×b^2 /2" which corresponds to the volume of the tumour. The anti-tumour activity was expressed by the ratio (T/C) of the volume (T) of the tumours of the group of animals administered with the test compound to the corresponding volume (C) of tumours of the untreated animals.
On graph paper, T/C was indicated by an arithmetic scale on the longitudinal axis and the administered amount of the test compound was indicated by a logarithmic scale on the lateral axis.

[4] = system: Proteus vulgalis ATCC 6897; assay: Antibacterial activity (minimum growth inhibitory concentration), agar dilution method; format: cell-based; details: pH 7, read-out: minimum growth inhibitory concentration, PV
Method: as §1
PV: Proteus vulgalis ATCC 6897

| SMILES | MIC [1] | MIC (Bacillus subtilis 10707) | MIC [2] | MIC [3] | LD50 at 336 h (Acute toxicity) | WBC4000 (peripheral leucocytes) | CIc (Sarcoma 180 solid tumour) | ED50 (Sarcoma 180 solid tumour) | CI (LD50/ED50) (Sarcoma 180 solid tumour) | MIC [4] |
| --- | --- | --- | --- | --- | --- | --- | --- | --- | --- | --- |
| CC1=C(NCCSC(=O)c2ccccc2)C(=O)C2=C(C1=O)N1C[C@H]3[C@H](N3C)[C@]1(O)[C@H]2COC(N)=O (some centres unmarked) [Compound 14] | 50 µg/mL (≈ 100 µM) | 0.39 µg/mL (≈ 0.782 µM) | > 100 µg/mL | > 100 µg/mL | – | – | – | – | – | – |
| COc1ccc(C(=O)SCCNC2=C(C)C(=O)C3=C(C2=O)[C@H](COC(N)=O)[C@@]2(O)[C@@H]4[C@H](CN32)N4C)cc1 (some centres unmarked) [Compound 24] | 100 µg/mL (≈ 189 µM) | 1.6 µg/mL (≈ 3.03 µM) | – | 1.6 µg/mL (≈ 3.03 µM) | 27.5 mg/kg | 25.5 mg/kg | 1.3 | 7.2 mg/kg | 3.8 | – |
| C=C1C2=C(C(=O)C(C)=C(NCCSC(C)=S)C2=O)N2C[C@H]3[C@H](N3C)[C@]12O (some centres unmarked) [Compound 29] | > 100 µg/mL | 1.6 µg/mL (≈ 4.09 µM) | 25 µg/mL (≈ 63.9 µM) | 3.1 µg/mL (≈ 7.92 µM) | – | – | – | – | – | 13 µg/mL (≈ 33.2 µM) |
| CO[C@@]12[C@H](COC(N)=O)C3=C(C(=O)C(C)=C(NCCCCCCCCSC(=O)c4ccc(F)cc4)C3=O)N1C[C@@H]1N[C@@H]12 [Compound 20] | 0.63 µg/mL (≈ 1.05 µM) | 0.31 µg/mL (≈ 0.516 µM) | 40 µg/mL (≈ 66.6 µM) | 0.63 µg/mL (≈ 1.05 µM) | 62.5 mg/kg | 13.0 mg/kg | 1.6 | 16.3 mg/kg | 3.8 | > 40 µg/mL |
| COc1ccc(C(=O)SCCNC2=C(C)C(=O)C3=C(C2=O)[C@@H](COC(N)=O)[C@@]2(OC)[C@H]4N[C@H]4CN32)cc1 [Compound 23] | 0.16 µg/mL (≈ 0.303 µM) | < 0.02 µg/mL | 5 µg/mL (≈ 9.46 µM) | < 0.02 µg/mL | 6.3 mg/kg | 5 mg/kg | 0.81 | 2.5 mg/kg | 2.5 | 10 µg/mL (≈ 18.9 µM) |
| CO[C@@]12[C@H](COC(N)=O)C3=C(C(=O)C(C)=C(NCCCCSC(C)=S)C3=O)N1C[C@@H]1N[C@@H]12 [Compound 30] | 0.31 µg/mL (≈ 0.645 µM) | 0.31 µg/mL (≈ 0.645 µM) | 1.3 µg/mL (≈ 2.7 µM) | 0.31 µg/mL (≈ 0.645 µM) | > 100 mg/kg | 58.1 mg/kg | > 1.1 | 37.7 mg/kg | > 2.7 | 5 µg/mL (≈ 10.4 µM) |
| CC1=C(NCCSC(=O)c2ccc([N+](=O)[O-])cc2)C(=O)C2=C(C1=O)N1C[C@H]3[C@H](N3C)[C@]1(O)[C@H]2COC(N)=O (some centres unmarked) [Compound 25] | 13 µg/mL (≈ 23.9 µM) | 0.39 µg/mL (≈ 0.717 µM) | 13 µg/mL (≈ 23.9 µM) | 3.1 µg/mL (≈ 5.7 µM) | 33.8 mg/kg | 15.9 mg/kg | 1.6 | 6.9 mg/kg | 4.9 | > 100 µg/mL |
| CO[C@@]12[C@H](COC(N)=O)C3=C(C(=O)C(C)=C(NCCSC(=O)c4ccccc4)C3=O)N1C[C@H]1[C@@H]2N1C (some centres unmarked) [Compound 16] | 0.63 µg/mL (≈ 1.23 µM) | 0.078 µg/mL (≈ 0.152 µM) | 10 µg/mL (≈ 19.5 µM) | 0.16 µg/mL (≈ 0.312 µM) | – | – | – | – | – | > 40 µg/mL |
| CC(=S)SCCNC1=C(C)C(=O)C2=C(C1=O)[C@H](COC(N)=O)[C@@]1(O)[C@@H]3[C@H](CN21)N3C (some centres unmarked) [Compound 27, 7-N-(2-dithioacetyloxyethyl)mitomycin D] | 0.39 µg/mL (≈ 0.862 µM) | < 0.049 µg/mL | 0.78 µg/mL (≈ 1.72 µM) | 0.2 µg/mL (≈ 0.442 µM) | 13.1 mg/kg | 15.5 mg/kg | 1.1 | 3.4 mg/kg | 3.9 | 3.1 µg/mL (≈ 6.85 µM) |
| CO[C@@]12[C@H](COC(N)=O)C3=C(C(=O)C(C)=C(N)C3=O)N1C[C@@H]1N[C@@H]12 [MMC, mitomycin C, reference compound] | – | – | – | – | – | 2.4 to 6.1 mg/kg | 1 | – | – | – |
| CO[C@@]12[C@H](COC(N)=O)C3=C(C(=O)C(C)=C(NCCSC(C)=S)C3=O)N1C[C@H]1[C@@H]2N1C (some centres unmarked) [Compound 28] | 0.039 µg/mL (≈ 0.0836 µM) | < 0.02 µg/mL | 1.3 µg/mL (≈ 2.79 µM) | < 0.02 µg/mL | 13.1 mg/kg | 10.4 mg/kg | 1.1 | 3.3 mg/kg | 4.0 | 2.5 µg/mL (≈ 5.36 µM) |
| CO[C@@]12[C@H](COC(N)=O)C3=C(C(=O)C(C)=C(NCCCCCCSC(C)=S)C3=O)N1C[C@@H]1N[C@@H]12 [Compound 31] | 2.5 µg/mL (≈ 4.91 µM) | 2.5 µg/mL (≈ 4.91 µM) | 2.5 µg/mL (≈ 4.91 µM) | 1.3 µg/mL (≈ 2.56 µM) | > 100 mg/kg | 27.5 mg/kg | > 1.5 | 28.1 mg/kg | > 3.6 | 10 µg/mL (≈ 19.7 µM) |
| CCC(=O)SCCNC1=C(C)C(=O)C2=C(C1=O)[C@H](COC(N)=O)[C@@]1(O)[C@@H]3[C@H](CN21)N3C (some centres unmarked) [Compound 6] | 13 µg/mL (≈ 28.9 µM) | 0.78 µg/mL (≈ 1.73 µM) | 25 µg/mL (≈ 55.5 µM) | 13 µg/mL (≈ 28.9 µM) | – | – | – | – | – | 100 µg/mL (≈ 222 µM) |
| CC1=C(NCCSC(=O)c2ccc(F)cc2)C(=O)C2=C(C1=O)N1C[C@H]3[C@H](N3C)[C@]1(O)[C@H]2COC(N)=O (some centres unmarked) [Compound 19, 7-N-[2-(4-fluorobenzoylthio)ethyl]mitomycin D] | 100 µg/mL (≈ 194 µM) | 1.6 µg/mL (≈ 3.1 µM) | – | 6.3 µg/mL (≈ 12.2 µM) | 15 mg/kg | 19.1 mg/kg | 0.89 | 5.6 mg/kg | 2.7 | – |
| CO[C@@]12[C@H](COC(N)=O)C3=C(C(=O)C(C)=C(NCCCCCCCCSC(C)=O)C3=O)N1C[C@@H]1N[C@@H]12 [Compound 12] | 5 µg/mL (≈ 9.6 µM) | 0.31 µg/mL (≈ 0.595 µM) | 1.3 µg/mL (≈ 2.5 µM) | 0.31 µg/mL (≈ 0.595 µM) | 45 mg/kg | 19.6 mg/kg | 1.3 | 9.7 mg/kg | 4.6 | 5 µg/mL (≈ 9.6 µM) |
| CC1=C(NCCSC(=O)c2ccc(Br)cc2)C(=O)C2=C(C1=O)N1C[C@H]3[C@H](N3C)[C@]1(O)[C@H]2COC(N)=O (some centres unmarked) [Compound 22] | 25 µg/mL (≈ 43.3 µM) | < 0.049 µg/mL | > 100 µg/mL | 0.39 µg/mL (≈ 0.675 µM) | – | – | – | – | – | – |
| C=C1C2=C(C(=O)C(C)=C(NCCSC(=O)c3ccccc3)C2=O)N2C[C@H]3[C@H](N3C)[C@]12O (some centres unmarked) [Compound 15] | > 100 µg/mL | 1.6 µg/mL (≈ 3.66 µM) | 50 µg/mL (≈ 114 µM) | 25 µg/mL (≈ 57.1 µM) | ≥ 50 mg/kg | 27.5 mg/kg | ≥ 0.74 | 27.5 mg/kg | ≥ 1.8 | 25 µg/mL (≈ 57.1 µM) |
| CCC(=O)SCCNC1=C(C)C(=O)C2=C(C1=O)[C@@H](COC(N)=O)[C@@]1(OC)[C@H]3N[C@H]3CN21 [Compound 5] | < 0.02 µg/mL | < 0.02 µg/mL | 0.31 µg/mL (≈ 0.688 µM) | < 0.02 µg/mL | 4.7 mg/kg | > 5 mg/kg | 0.59 | 5 mg/kg | 0.94 | 1.3 µg/mL (≈ 2.89 µM) |
| CO[C@@]12[C@H](COC(N)=O)C3=C(C(=O)C(C)=C(NCCCCCCSC(=O)c4ccccc4)C3=O)N1C[C@@H]1N[C@@H]12 [Compound 17] | 2.5 µg/mL (≈ 4.51 µM) | 0.16 µg/mL (≈ 0.288 µM) | 10 µg/mL (≈ 18 µM) | 0.63 µg/mL (≈ 1.14 µM) | > 50 mg/kg | 32.2 mg/kg | > 1.7 | 9.5 mg/kg | > 5.3 | > 40 µg/mL |
| CO[C@@]12[C@H](COC(N)=O)C3=C(C(=O)C(C)=C(NCCSC(=O)c4ccc(F)cc4)C3=O)N1C[C@@H]1N[C@@H]12 [Compound 18] | 0.16 µg/mL (≈ 0.31 µM) | < 0.02 µg/mL | 5 µg/mL (≈ 9.68 µM) | < 0.02 µg/mL | 6 mg/kg | 5 mg/kg | 1.2 | 1.6 mg/kg | 3.8 | 10 µg/mL (≈ 19.4 µM) |
